The values that follow come from ChEMBL document CHEMBL4229332, “Novel multi-target azinesulfonamides of cyclic amine derivatives as potential antipsychotics with pro-social and pro-cognitive effects” (Eur J Med Chem, 2018).

The species named for data set [1] is Rattus norvegicus. Put plainly: animal or person. The following applies: Sprague-Dawley, ip, read-out: MED.
Description: Reversal of PCP-induced cognitive impairment in ip dosed Sprague-Dawley rat assessed as reduction in time spent exploring novel object over familiar object pretreated for 60 mins followed by PCP addition by novel object recognition assay
The target in data set [2] is T1, 5-hydroxytryptamine receptor 1A (Homo sapiens, UniProt P08908).
T1 sequence (P08908 whole entry): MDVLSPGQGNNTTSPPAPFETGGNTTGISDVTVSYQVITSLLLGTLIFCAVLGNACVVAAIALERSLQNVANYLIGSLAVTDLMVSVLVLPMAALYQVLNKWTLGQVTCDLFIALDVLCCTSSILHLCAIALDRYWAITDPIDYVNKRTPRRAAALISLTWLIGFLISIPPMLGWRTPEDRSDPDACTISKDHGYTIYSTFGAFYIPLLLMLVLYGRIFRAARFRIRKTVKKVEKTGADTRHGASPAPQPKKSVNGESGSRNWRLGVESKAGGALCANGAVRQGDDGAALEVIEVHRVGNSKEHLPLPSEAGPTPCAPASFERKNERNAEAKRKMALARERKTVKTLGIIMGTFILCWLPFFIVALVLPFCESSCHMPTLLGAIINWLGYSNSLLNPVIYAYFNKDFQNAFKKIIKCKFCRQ
Put plainly: biochemical.
Description: Displacement of [3H]-8-OH-DPAT from human 5-HT1AR expressed in HEK293 cell membranes after 1 hr by microbeta counting method

Data set [3] has as its target D(2) dopamine receptor (Homo sapiens) (UniProt P14416). Kind of data set: Antagonist activity at human D2LR expressed in CHO-K1 cells assessed as inhibition of dopamine-induced cAMP accumulation at 10^-6 M by chemiluminescence-based assay. It counts as functional, cell-based. In general terms: Changes in cAMP serve as a functional read-out for many G protein-coupled receptors.

Data set [4] relates to Cavia porcellus. Kind of data set: Cardiotoxicity in guinea pig assessed as effect on QRS interval time at 5 mg/kg, ip measured after 40 mins by ECG analysis (reference value: 26.2 to 31.6 milliseconds). It counts as toxicity, organism-based. The following applies: in vivo.
The target in data set [5] is T2, 5-hydroxytryptamine receptor 7 (Homo sapiens, UniProt P34969). Put plainly: Displacement of [3H]LSD from human recombinant 5-HT7 receptor at 10^-6 M after 120 mins by scintillation counting analysis relative to control.
Data set [6] addresses Cytochrome P450 1A2 (Homo sapiens, UniProt P05177). Kind of data set: Inhibition of human supersome CYP1A2 using caffeine as substrate assessed as caffeine 3-N-demethylation after 30 mins by HPLC-UV detection. The format is ADME.
Data set [7] relates to Rattus norvegicus. Kind of data set: Toxicity in Wistar rat assessed as increase in prolactin level at 1 to 3 mg/kg, po after 60 mins by ELISA. The format is organism-based. The note with it: in vivo, 1 h. On the technique in general: ELISA stands for enzyme-linked immunosorbent assay.
The target in data set [8] is 5-hydroxytryptamine receptor 2C (Homo sapiens) (UniProt P28335). Put plainly: Displacement of [3H]mesulergine from human 5-HT2C receptor expressed in CHO cells at 10^-6 M after 120 mins by scintillation counting analysis relative to control. It counts as cell-based.
For data set [9], the target named is T1, 5-hydroxytryptamine receptor 1A. Put plainly: Partial agonist activity at human 5-HT1AR expressed in CHO-K1 cells assessed as increase in cAMP accumulation by chemiluminescence-based assay. It counts as functional, cell-based.
Data set [10] deals with T2, 5-hydroxytryptamine receptor 7. Put plainly: Displacement of [3H]LSD from recombinant human 5-HT7R after 120 mins by scintillation counting method. For orientation: In a radioligand displacement assay an active substance lowers the binding of a labelled ligand.
Data set [11] concerns the target D(3) dopamine receptor (Homo sapiens) (UniProt P35462). Put plainly: Displacement of [3H]-methyl-spiperone from human dopamine D3 receptor expressed in CHO cells at 10^-6 M after 60 mins by scintillation counting method relative to control. It counts as cell-based.
In data set [12] the test system is Rattus norvegicus. Kind of data set: Reversal of ketamine-induced cognitive flexibility in ip dosed Sprague-Dawley rat administered 30 mins prior to ketamine administration by attentional set-shifting test. It counts as functional. The note with it: read-out: MED.
Data set [13] in a line: Ratio of drug level in brain to plasma in Wistar rat at 3 mg/kg, ip measured after 30 mins by LC-MS/MS analysis. It counts as ADME, organism-based. The following applies: read-out: BPR.
The target in data set [14] is 5-hydroxytryptamine receptor 2B (Homo sapiens) (UniProt P41595). Put plainly: Displacement of [3H]mesulergine from human 5-HT2B receptor expressed in CHO cells at 10^-6 M after 60 mins by scintillation counting analysis relative to control. It counts as cell-based.
The nature of data set [15]: Cmax in Wistar rat plasma at 9 mg/kg per os administered as a single dose by LC-MS/MS analysis. It counts as ADME, organism-based. Set-up: dose 9 mg/kg. The note with it: po.
Data set [16] addresses 5-hydroxytryptamine receptor 3A (Homo sapiens) (UniProt P46098). Kind of data set: Displacement of [3H]BRL 43694 from human 5-HT3 receptor expressed in CHO cells at 10^-6 M after 120 mins by scintillation counting analysis relative to control. The format is cell-based.
In data set [17] the target is Sodium-dependent dopamine transporter (Homo sapiens) (UniProt Q01959). Kind of data set: Displacement of [3H]-BTCP from human DAT expressed in CHO cells at 10^-6 M after 120 mins by scintillation counting method relative to control. It counts as cell-based.
Data set [18] has as its system Cavia porcellus. Kind of data set: Cardiotoxicity in guinea pig assessed as effect on QRS interval time at 5 mg/kg, ip measured after 70 mins by ECG analysis (reference value: 26.2 to 31.6 milliseconds). It counts as toxicity, organism-based. The following applies: in vivo.
Data set [19] can be described thus: Intrinsic clearance in rat liver microsomes at 20 uM at 37 degC measured after 120 mins in presence of NADPH-regenerating system by UPLC-MS analysis. The format is ADME, microsome. The note with it: read-out: CLH.
Data set [20] relates to Cavia porcellus. Kind of data set: Cardiotoxicity in guinea pig assessed as effect on RR interval time at 5 mg/kg, ip measured after 50 mins by ECG analysis (reference value: 208.4 to 238.4 milliseconds). The following applies: in vivo. The format is toxicity, organism-based.
The subject of data set [21] is Cavia porcellus. Kind of data set: Cardiotoxicity in guinea pig assessed as effect on QT interval time at 5 mg/kg, ip measured after 20 mins by ECG analysis (reference value: 127.6 to 131.2 milliseconds). It counts as toxicity, organism-based. The note with it: in vivo.
The target of data set [22] is T3, 5-hydroxytryptamine receptor 6 (Homo sapiens, UniProt P50406). Kind of data set: Antagonist activity at human 5-HT6R expressed in CHO-K1 cells assessed as inhibition of serotonin-induced cAMP accumulation at 10^-6 M by chemiluminescence-based assay. The format is functional, cell-based.
Data set [23] deals with T2, 5-hydroxytryptamine receptor 7. Put plainly: Antagonist activity at human 5-HT7R expressed in human DLD1 cells assessed as inhibition of serotonin-induced cAMP accumulation by chemiluminescence-based assay. The format is functional, cell-based.
Data set [24] has as its target Sodium-dependent noradrenaline transporter (Homo sapiens) (UniProt P23975). Kind of data set: Displacement of [3H]-nisoxetine from human NET expressed in CHO cells at 10^-6 M after 120 mins by scintillation counting method relative to control. It counts as cell-based.
For data set [25], the target named is Beta-2 adrenergic receptor (Homo sapiens) (UniProt P07550). Put plainly: Displacement of CGP 12177 from human adrenergic beta2 receptor expressed in CHO cells at 10^-6 M after 60 mins by scintillation counting method relative to contro. The format is cell-based.
In data set [26] the test system is Cavia porcellus. Put plainly: Cardiotoxicity in guinea pig assessed as effect on frequence of heart rate at 5 mg/kg, ip measured after 50 mins by ECG analysis (reference value: 262 to 296 /min). The format is toxicity, organism-based. The following applies: in vivo.
Data set [27] is described as follows: Drug level in Wistar rat plasma at 3 mg/kg, ip measured after 15 mins by LC-MS/MS analysis. The format is ADME, organism-based.
Data set [28] deals with T2, 5-hydroxytryptamine receptor 7. Put plainly: Antagonist activity at human 5-HT7R expressed in CHO-K1 cells assessed as inhibition of serotonin-induced cAMP accumulation at 10^-6 M after 30 mins by chemiluminescence-based assay. The format is functional, cell-based.
A short description of data set [29]: Toxicity in ip dosed Sprague-Dawley rat assessed as induction of catalepsy measured every 30 mins up to 240 mins by bar test. The following applies: Sprague-Dawley, in vivo. The format is organism-based.
Data set [30] concerns the target T3, 5-hydroxytryptamine receptor 6. Kind of data set: Antagonist activity at human 5-HT6R expressed in CHO-K1 cells assessed as inhibition of serotonin-induced cAMP accumulation after 30 mins by chemiluminescence-based assay. The format is functional, cell-based.

Molecules are shown by their SMILES.

T2 sequence (P34969 whole entry): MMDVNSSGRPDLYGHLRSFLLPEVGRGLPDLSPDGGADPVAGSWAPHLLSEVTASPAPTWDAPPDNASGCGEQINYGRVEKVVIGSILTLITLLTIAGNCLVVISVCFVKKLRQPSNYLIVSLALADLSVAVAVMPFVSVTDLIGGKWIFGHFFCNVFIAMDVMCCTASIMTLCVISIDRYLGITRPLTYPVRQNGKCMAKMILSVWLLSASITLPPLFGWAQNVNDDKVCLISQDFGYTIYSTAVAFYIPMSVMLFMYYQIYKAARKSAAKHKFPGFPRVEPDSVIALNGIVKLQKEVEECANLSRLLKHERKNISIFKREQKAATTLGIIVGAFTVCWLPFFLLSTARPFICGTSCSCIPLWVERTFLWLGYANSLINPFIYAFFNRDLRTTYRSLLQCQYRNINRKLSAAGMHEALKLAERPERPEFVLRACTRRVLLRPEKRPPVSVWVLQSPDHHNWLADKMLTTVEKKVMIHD
T3 sequence (P50406 whole entry): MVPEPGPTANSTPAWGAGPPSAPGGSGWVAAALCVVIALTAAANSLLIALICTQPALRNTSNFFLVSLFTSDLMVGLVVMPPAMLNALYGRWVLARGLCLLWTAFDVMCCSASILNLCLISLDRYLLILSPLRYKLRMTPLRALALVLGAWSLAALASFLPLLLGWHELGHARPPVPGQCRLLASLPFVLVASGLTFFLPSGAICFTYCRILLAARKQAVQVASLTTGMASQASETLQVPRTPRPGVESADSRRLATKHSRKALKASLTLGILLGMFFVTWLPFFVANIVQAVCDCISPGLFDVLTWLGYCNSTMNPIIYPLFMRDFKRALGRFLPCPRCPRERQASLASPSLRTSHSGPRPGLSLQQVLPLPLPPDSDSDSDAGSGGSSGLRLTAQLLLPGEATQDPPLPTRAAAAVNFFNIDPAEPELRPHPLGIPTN
Chain of Cytochrome P450 1A2 (P05177 whole entry): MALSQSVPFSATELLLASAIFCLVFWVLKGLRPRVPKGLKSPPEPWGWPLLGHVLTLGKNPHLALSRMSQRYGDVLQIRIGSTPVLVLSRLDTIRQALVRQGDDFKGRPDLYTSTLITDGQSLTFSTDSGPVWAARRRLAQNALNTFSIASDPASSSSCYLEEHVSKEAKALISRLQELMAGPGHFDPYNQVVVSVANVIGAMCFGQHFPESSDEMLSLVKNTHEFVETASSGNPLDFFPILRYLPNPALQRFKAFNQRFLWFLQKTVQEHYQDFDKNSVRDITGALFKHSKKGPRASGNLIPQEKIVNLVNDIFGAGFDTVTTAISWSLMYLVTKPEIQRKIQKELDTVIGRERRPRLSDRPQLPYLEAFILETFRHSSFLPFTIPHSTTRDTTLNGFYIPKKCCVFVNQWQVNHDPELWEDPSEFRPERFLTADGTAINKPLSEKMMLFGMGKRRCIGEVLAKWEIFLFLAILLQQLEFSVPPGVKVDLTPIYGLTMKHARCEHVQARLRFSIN
Chain of Sodium-dependent noradrenaline transporter (Homo sapiens) (P23975 whole entry): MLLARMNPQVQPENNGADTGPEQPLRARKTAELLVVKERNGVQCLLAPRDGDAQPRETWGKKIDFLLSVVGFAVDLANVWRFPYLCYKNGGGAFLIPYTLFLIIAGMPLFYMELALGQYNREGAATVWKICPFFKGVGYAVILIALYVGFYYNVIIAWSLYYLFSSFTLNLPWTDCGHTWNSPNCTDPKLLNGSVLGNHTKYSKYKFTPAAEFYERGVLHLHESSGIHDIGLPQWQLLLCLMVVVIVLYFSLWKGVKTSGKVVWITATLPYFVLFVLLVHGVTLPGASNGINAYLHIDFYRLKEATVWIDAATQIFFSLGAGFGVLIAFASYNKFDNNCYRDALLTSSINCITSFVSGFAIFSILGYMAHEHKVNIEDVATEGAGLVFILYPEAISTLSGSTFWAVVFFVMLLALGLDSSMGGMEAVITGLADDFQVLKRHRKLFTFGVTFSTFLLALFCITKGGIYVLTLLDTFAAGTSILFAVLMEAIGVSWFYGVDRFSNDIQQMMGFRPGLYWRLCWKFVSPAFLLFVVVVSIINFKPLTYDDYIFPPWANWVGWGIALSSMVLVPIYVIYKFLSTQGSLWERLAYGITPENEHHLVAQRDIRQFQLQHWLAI
Chain of Sodium-dependent dopamine transporter (Homo sapiens) (Q01959 whole entry): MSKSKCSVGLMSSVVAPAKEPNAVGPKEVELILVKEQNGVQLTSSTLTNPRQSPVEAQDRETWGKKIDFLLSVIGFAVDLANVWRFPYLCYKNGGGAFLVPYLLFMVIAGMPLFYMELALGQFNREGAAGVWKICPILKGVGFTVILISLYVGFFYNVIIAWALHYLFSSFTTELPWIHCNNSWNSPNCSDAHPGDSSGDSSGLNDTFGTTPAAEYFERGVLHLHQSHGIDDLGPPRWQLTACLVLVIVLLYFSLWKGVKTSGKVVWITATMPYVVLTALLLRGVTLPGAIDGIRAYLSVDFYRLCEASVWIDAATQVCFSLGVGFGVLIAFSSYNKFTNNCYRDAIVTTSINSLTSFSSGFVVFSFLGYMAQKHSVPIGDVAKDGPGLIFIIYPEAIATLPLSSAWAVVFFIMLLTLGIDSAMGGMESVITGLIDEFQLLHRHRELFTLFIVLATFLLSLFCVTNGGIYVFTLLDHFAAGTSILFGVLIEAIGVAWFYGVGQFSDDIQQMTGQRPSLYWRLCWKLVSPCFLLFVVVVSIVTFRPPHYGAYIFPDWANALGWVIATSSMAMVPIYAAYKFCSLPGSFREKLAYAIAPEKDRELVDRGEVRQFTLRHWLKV
Chain of 5-hydroxytryptamine receptor 3A (Homo sapiens) (P46098 whole entry): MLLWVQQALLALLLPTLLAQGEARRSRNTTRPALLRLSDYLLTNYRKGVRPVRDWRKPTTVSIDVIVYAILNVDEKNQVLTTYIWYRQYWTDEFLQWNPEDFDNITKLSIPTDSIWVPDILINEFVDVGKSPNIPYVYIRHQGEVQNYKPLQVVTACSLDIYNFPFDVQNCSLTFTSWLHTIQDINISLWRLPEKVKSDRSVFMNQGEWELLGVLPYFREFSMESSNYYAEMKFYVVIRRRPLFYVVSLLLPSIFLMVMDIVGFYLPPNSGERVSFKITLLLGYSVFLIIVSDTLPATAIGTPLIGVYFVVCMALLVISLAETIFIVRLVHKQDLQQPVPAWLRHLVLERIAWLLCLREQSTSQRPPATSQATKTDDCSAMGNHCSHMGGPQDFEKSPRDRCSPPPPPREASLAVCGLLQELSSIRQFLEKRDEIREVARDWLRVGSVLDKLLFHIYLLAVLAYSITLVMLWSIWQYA
Chain of D(2) dopamine receptor (Homo sapiens) (P14416 whole entry): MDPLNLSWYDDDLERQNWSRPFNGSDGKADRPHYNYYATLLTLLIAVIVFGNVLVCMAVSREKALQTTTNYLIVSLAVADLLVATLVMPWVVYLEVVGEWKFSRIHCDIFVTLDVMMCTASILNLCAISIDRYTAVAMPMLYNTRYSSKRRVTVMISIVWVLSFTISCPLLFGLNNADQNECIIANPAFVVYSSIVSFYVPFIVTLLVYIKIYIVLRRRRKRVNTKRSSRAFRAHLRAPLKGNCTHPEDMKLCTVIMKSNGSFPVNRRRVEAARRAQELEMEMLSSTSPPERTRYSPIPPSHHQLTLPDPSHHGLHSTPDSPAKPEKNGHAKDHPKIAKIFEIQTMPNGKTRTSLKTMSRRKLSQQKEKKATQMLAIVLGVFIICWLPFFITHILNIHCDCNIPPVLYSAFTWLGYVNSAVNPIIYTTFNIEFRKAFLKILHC
Chain of 5-hydroxytryptamine receptor 2B (Homo sapiens) (P41595 whole entry): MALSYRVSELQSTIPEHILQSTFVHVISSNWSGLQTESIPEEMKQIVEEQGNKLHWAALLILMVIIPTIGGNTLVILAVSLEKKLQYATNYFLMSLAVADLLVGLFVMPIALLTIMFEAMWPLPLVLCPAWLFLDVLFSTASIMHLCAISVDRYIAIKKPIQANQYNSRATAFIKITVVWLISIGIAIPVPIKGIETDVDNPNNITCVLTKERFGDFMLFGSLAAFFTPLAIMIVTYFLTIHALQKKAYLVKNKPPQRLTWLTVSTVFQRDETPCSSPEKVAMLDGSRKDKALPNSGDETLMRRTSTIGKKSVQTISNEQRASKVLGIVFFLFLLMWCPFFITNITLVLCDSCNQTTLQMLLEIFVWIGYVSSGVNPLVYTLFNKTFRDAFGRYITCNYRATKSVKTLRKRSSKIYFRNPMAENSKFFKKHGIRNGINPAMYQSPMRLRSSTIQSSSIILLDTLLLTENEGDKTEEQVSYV
Chain of D(3) dopamine receptor (Homo sapiens) (P35462 whole entry): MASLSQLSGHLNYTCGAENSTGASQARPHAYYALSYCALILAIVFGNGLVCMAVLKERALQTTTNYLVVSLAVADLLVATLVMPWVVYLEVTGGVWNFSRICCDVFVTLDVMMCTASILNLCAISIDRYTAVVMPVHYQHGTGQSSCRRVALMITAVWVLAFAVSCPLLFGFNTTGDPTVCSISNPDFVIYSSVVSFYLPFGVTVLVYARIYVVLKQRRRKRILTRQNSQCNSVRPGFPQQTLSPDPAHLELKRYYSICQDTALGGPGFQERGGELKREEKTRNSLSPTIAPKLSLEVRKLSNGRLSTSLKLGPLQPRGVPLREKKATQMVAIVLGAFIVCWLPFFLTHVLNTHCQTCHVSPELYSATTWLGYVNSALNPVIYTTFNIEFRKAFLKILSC
Chain of Beta-2 adrenergic receptor (Homo sapiens) (P07550 whole entry, looked up): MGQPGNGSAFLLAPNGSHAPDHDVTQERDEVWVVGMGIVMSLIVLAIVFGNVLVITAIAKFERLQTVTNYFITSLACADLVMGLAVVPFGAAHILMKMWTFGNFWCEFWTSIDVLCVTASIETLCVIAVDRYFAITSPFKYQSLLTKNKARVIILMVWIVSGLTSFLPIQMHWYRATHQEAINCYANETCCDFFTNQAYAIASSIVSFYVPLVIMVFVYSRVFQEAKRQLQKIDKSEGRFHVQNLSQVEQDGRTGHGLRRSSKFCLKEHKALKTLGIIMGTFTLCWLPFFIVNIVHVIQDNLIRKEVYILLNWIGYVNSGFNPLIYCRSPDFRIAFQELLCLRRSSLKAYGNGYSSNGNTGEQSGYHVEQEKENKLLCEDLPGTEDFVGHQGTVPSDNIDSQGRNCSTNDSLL

Regarding `O=S(=O)(c1cncc2ccccc12)N1CCC[C@H]1CCN1CCN(c2cccc3sccc23)CC1`, the minimal effective dose in [1] and in data set [12] was 1 mg/kg in each case. In addition, the Ki (commonly the equilibrium dissociation constant of an inhibitor or competing ligand from its target) in data set [2] turned out to be 18 nM; in data set [10] it was 19 nM. Also, the inhibition (as a rule, how much of the control response was suppressed) worked out at 92% in data set [3]; 100% in data set [5]; 80% in data set [8]; 98% in data set [11]; 100% in data set [14]; 15% in data set [16]. Also, the inhibition came out at 19% in data set [17], 23% in data set [22], 11% in [24] and 25% in data set [25]. Further, the Time came out at 31.2 ms in data set [4], 30.8 ms in data set [18], 220 ms in [20] and 129 ms in data set [21]. Moreover, the IC50 (usually the concentration that inhibits the measured activity by half) in data set [6] is greater than 100000 nM. Also, the Activity result in data set [7] is “Non-Toxic”; in data set [26], 270 min⁻¹. Also, the EC50 – broadly, the concentration needed to bring the measured effect to its halfway point – in data set [9] turned out to be 28.3 nM. Further, the Kp at 0.5 h in data set [13] was 2.44. Besides, the Cmax (commonly the peak of the concentration-time curve) in data set [15] stood at 54 nM. In data set [19], the microsomal CLint at 20 µM was determined as 2.81 µL/min/mg. Also, in [23], the Kb (as a rule, the equilibrium dissociation constant of an antagonist, usually derived from a functional assay) was 3.4 nM. Besides, the concentration at 0.25 h in data set [27] worked out at 188 nM.

As to `O=S(=O)(c1cncc2ccccc12)N1CCC[C@H]1CCN1CCN(c2nsc3ccccc23)CC1`, the minimal effective dose in data set [1] is 1 mg/kg. Besides, the Ki in data set [2] came to 37 nM. Moreover, the Time in data set [4] turned out to be 27.6 ms; in data set [18], 27.8 ms; in [20], 210.6 ms; in data set [21], 121.6 ms. Besides, the inhibition in [28] was determined as 100%. Also, the IC50 in data set [6] was greater than 100000 nM. Moreover, the MTD in data set [29] amounted to 30 mg/kg. In data set [13], the Kp at 0.5 h came out at 1.33. Also, the microsomal CLint at 20 µM in [19] came out at 1.73 µL/min/mg. For the same compound, in [30], the Kb was 974 nM. Also, the Activity in [26] amounted to 288 min⁻¹. In data set [27], this compound had a concentration at 0.25 h of 249 nM.
